Patent US20060172941A1, “Anti-angiogenic peptides and methods of use thereof” (priority 2004, published 2006)
“Also recorded” adds a separate entry of the source. Where no end group is shown, it is not given here. [ ]: non-standard residue; d: D form.

Legend:
[1] = Biological activity of D-amino acid versions of ST100,038 (test not specified); settings: tested against a control
Method: D-amino acid peptides can be made by generating a D-amino acid peptide with the same sequence as a L-amino acid peptide or by preparing a retro inverso form of a peptide. ST100,045 (SEQ ID NO.: 31) has the same sequence as ST100,038 (SEQ ID NO.: 29) was tested against ST100,059 (SEQ ID NO.: 30) which is the retro inverso version of ST100,038 and a control.

[2] = Heparin binding activity, Hi Trap Heparin HP column, NaCl step elution; settings: for [NaCl] for elution: heparin column, step gradient in 10 mM NaH2PO4 pH 7
Description: Liquid chromatography was used to determine the relative levels of heparin binding activity of the individual heparin binding domains and of the anti-angiogenic miniproteins that contains them. In this assay, the strength of the heparin binding activity is proportional to the amount of NaCl that is required to elute the peptide bound to the heparin column. Peptides with low binding activity are eluted with lower NaCl concentration, whereas higher concentrations of NaCl are required for peptides with higher binding activity.
Hi Trap Heparin HP column (1 ml, Amersham Biosciences) was equilibrated with 10 column volumes (CV) of equilibration (EQ) buffer=10 mM NaH2PO4 pH 7. All buffers were loaded onto columns via syringes. 500 μl fractions are collected (flow rate=1 ml/minute). 500 μg of peptide (1 mg/ml, resuspended in EQ buffer) was added to each column and the flow through was collected for analysis. The columns were then washed with 3 CV of EQ buffer. Peptides are then eluted with a step gradient of 500, 625, 750, 875 mM NaCl in EQ buffer, 2 CV per each step. A final step of 3 CV of 1000 mM NaCl in EQ buffer was collected in 500 μl fractions. The A210 nm was measured using EQ and elution buffers as blanks.

[3] = test system: Bovine Retinal Endothelial Cells (BRE); assay: VEGF-mediated survival/proliferation of bovine retinal endothelial cells (WST1); assay type: cell-based; settings: VEGF 25 ng/ml, 72 hours, FIG. 4 and 5
Method: (§1) The anti-angiogenic activities of the peptides were tested by measuring the level of inhibition of VEGF and bFGF mediated survival/proliferation of Bovine Retinal Endothelial Cells (BRE), Human Dermal Microvasculature Endothelial Cells, and Human Umbilical Vein Endothelial Cells, all of which are standard cell lines used to test anti-angiogenic compounds.
Bovine retinal endothelial (BRE) cells were maintained in Cambrex EG2 media. For non-adherent cell assays, on day one cells were starved for either 6 hours or overnight, then trypsinized and plated in 96-well plates in 100 μl of Optimem plus 1% fetal bovine serum (FBS). One hundred μl of Optimem plus 1% FBS was added to the wells containing, where appropriate, VEGF to a final concentration of 25 ng/ml, and the various peptides to final concentrations as described. For adherent cells, cells were plated in 96-well plates in complete media, allowed to adhere overnight, washed in starvation media (Optimem plus 1% FBS) and then starved during the day. At the end of the day, 100 μl of Optimem plus 1% FBS was added to the wells containing, where appropriate, VEGF to a final concentration of 25 ng/ml and the various peptides to final concentrations as described.
(§2) In all cases, after 72 hours incubation, the amount of live cells in each well was measured with the WST1 assay (Roche).

[4] = test system: B16-F1 melanoma cells; assay: Subcutaneous B16 melanoma tumor growth in vivo; parameters: species or system mouse; settings: 20 mg/kg daily IP; for Inhibition of tumor growth: vs untreated controls, FIG. 12 and 14
Method: Because of the importance of the angiogenic process for tumorigenesis, miniproteins as described herein, were hypothesized to show good anti-tumor activity. The peptides of the invention were tested in an in vivo model of anti-tumor activity. This model compares the growth of subcutaneous B16 melanoma tumor in vivo either untreated or treated with various amount of miniproteins described in this application. This model is widely accepted in the art as a model to test the anti-tumor activity of compounds that inhibit tumor growth because they have anti-angiogenic activity.
Male C57BL/6 mice were obtained with a mean body weight of 20±2 g. Mouse B16-F1 melanoma cells were implanted subcutaneously (5×10^5 cell per animal). Peptides (formulated in water) were administered ip daily at the amount indicated starting the day after cells injection. In general, tumors became palpable around 9 days after injection of cells. Tumor were then measured every 2 days.

[5] = test system: RPMI-8226 human myeloma xenografts; assay: RPMI-8226 human myeloma subcutaneous xenograft model; assay type: in vivo, mouse; settings: scid mice, FIG. 16
Method: Anti-tumor efficacy of test peptides was evaluated against RPMI-8226 human myeloma xenografts implanted subcutaneously (sc) in severe compromised immunodeficient (scid) mice.
Studies generally consisted of randomly-assigned groups of 8 or 10 mice per group, which were implanted sc with myeloma fragments (30-40 mg). In addition to groups tested with test peptides, studies usually included a vehicle-treated control group and a positive control group treated with an agent known to be active in the RPMI-8226 model. In one type of schedule, mice were treated IP with either vehicle or test peptides starting one day after tumor implantation (implantation day defined as Day 0). Test peptides and vehicle were generally administered IP daily for 3-4 weeks.
Dosing solutions of the test peptides were prepared weekly and kept at −20° C. between injections. […] Each tumor was measured by caliper in two dimensions and converted to tumor mass using the formula for a prolate ellipsoid (a X b^2/2), where a is the longer dimension and b is the smaller dimension, and assuming unit density (1 mm^3=1 mg). Tumor measurements were recorded twice weekly. Body weights were also recorded twice weekly. Anti-tumor activity was assessed by the delay in tumor growth of the treated groups in comparison to the vehicle-treated control group, partial and complete regressions, and tumor-free survivors. […]

[6] = test system: Human Dermal Microvasculature Endothelial Cells; assay: VEGF-mediated survival/proliferation of human dermal microvasculature endothelial cells; assay type: cell-based; settings: 30, 100, and 200 μg/ml, FIG. 8
Method: as §1, §2
(§3) In a further experiment, the anti-angiogenic activity of peptide ST100,061 (SEQ ID NO.: 3), a derivative of ST100,032 (SEQ-ID NO.: 1), at concentrations of 30, 100, and 200 μg/ml was tested by measuring the level of inhibition of VEGF and bFGF mediated survival/proliferation in human dermal microvasculature endothelial cells.

[7] = test system: Human Dermal Microvasculature Endothelial Cells; assay: bFGF-mediated survival/proliferation of human dermal microvasculature endothelial cells; assay type: cell-based; settings: 30, 100, and 200 μg/ml, FIG. 8
Method: as §1, §2, §3

[8] = test system: L1210; assay: Tumor cell proliferation (WST-1), L1210; assay type: cell-based, mouse; settings: FIG. 11
Method: Peptides to be tested were prepared at a stock concentration of 10 mM in sterile phosphate buffered saline. Cancer cell lines obtained from the American Type Culture Collection (MG-63, HT1080, A498, BxPC3, 786-0, PC-3, B16F1, B16F10, P388D1, Jurkat, MOLT4, THP-1, U-937, L1210, RPMI 8226, NCI H929, U266B1, K562) were cultured under appropriate conditions as described in the literature. Cell culture media and reagents were obtained from ATCC (Manassas, Va.), Invitrogen (Carlsbad, Calif.) or Mediatech (Herndon, Va.). Exponentially growing cultures were used for cell proliferation assays. Adherent cells were plated at a concentration of 100000 cells per milliter in growth media overnight (18-24 h) and treated the next day in a low serum media (growth media with 1% FBS for MG-63, HT1080, A498, BxPC3, PC-3, B16F1, B16F10. 786-0 cells were treated in media with 5% FBS). Suspension cell lines (P388D1, Jurkat, MOLT4, THP-1, U-937, L1210, RPMI 8226, NCI H929, U266B1, and K562) were diluted to a concentration of 100,000 cells per ml and treated on the same day with peptides. Peptides were diluted in treatment media and cells were treated for 48 or 72 hours depending on the cell line. Each dose was tested in triplicate for each experiment, and experiments were repeated for a minimum of three discrete times. After incubation, the relative number of cells was determined using WST-1 (Roche Applied Science). A 9.5 μl aliquot of WST-1 was added to each well. The plate was immediately read at 440 nm using a Bio-Tek PowerWave XS microplate reader, incubated for 2-3 hours at 37° C. and then read again. Cell proliferation was determined as the percent of the control cell proliferation. The absorbance of each well at time 0 was subtracted from the value of the final reading. Afterwards the blank values were averaged and subtracted from each test and control value. Finally, each test absorbance was divided by the average of the control absorbances and multiplied by 100 to obtain the percent of control. […]

[9] = test system: Human Umbilical Vein Endothelial Cells; assay: bFGF-mediated survival/proliferation of human umbilical vein endothelial cells (WST1); assay type: cell-based; settings: FIG. 6, 9, 10, 17
Method: as §1
Human umbilical cord endothelial (HUVEC) cells were maintained in Cambrex EGM-2MV media. On day one, cells were starved overnight in 1% FBS in M200 media (Cascade Biologicals). The morning after, the media were replaced with serum-free media (control) or media containing 25 ng/ml of human VEGF165 and the various peptides to final concentrations as described.
as §2

[10] = test system: tumor cells; assay: Ability to induce tumor cell death (general statement); assay type: cell-based
Method: Peptides to be tested were prepared at a stock concentration of 10 mM in sterile phosphate buffered saline. Cancer cell lines obtained from the American Type Culture Collection (MG-63, HT1080, A498, BxPC3, 786-0, PC-3, B16F1, B16F10, P388D1, Jurkat, MOLT4, THP-1, U-937, L1210, RPMI 8226, NCI H929, U266B1, K562) were cultured under appropriate conditions as described in the literature. Cell culture media and reagents were obtained from ATCC (Manassas, Va.), Invitrogen (Carlsbad, Calif.) or Mediatech (Herndon, Va.). Exponentially growing cultures were used for cell proliferation assays. […] After incubation, the relative number of cells was determined using WST-1 (Roche Applied Science). […] The plate was immediately read at 440 nm using a Bio-Tek PowerWave XS microplate reader, incubated for 2-3 hours at 37° C. and then read again. Cell proliferation was determined as the percent of the control cell proliferation. The absorbance of each well at time 0 was subtracted from the value of the final reading. […] Finally, each test absorbance was divided by the average of the control absorbances and multiplied by 100 to obtain the percent of control.

[11] = test system: L1210 murine leukemia cells; assay: L1210 murine leukemia intravenous model, survival; assay type: in vivo, mouse; settings: dosed IP, FIG. 15a
Method: Antitumor activity of test peptides, administered intraperitoneally (IP), were evaluated against L1210 murine leukemia cells implanted intravenously (IV) in DBA/2 mice.
Studies generally consisted of randomly-assigned groups of 8 mice per group, which were inoculated IV with 1×10^5 cells per mouse from an in vivo leukemia cell line. In addition to groups tested with test peptides, studies usually included a vehicle-treated control group and a positive control group treated with an agent known to be active in the L1210 leukemia model. Starting one day after tumor inoculation (inoculation day defined as Day 0), mice were treated IP with either vehicle or test peptides in various schedules. Generally this consisted of treatment every other day for approximately 1 week (e.g., Days 1, 3, 5 and 7). A positive agent (e.g., cyclophosphamide) was usually given as a single IP injection on Day 1. All dosing solutions were prepared on each day of treatment. Survival was monitored daily and body weights were measured twice weekly. Anti-tumor activity was assessed by the increase in lifespan of the treated groups in comparison to the vehicle-treated control group. Studies with the L1210 leukemia model were limited to 30 days.

Row | [NaCl] for elution [2] [mM] | Sequence | biological activity [1] | Inhibition of tumor growth [4] | Inhibition of proliferation of mouse leukemia L1210 cells [8] | Inhibition of bFGF-mediated survival [9] | also measured
1 |  | ATSLPPHSSQSP (also: D-amino acids noted, form not shown; listed as Homo sapiens) [ST100,045] | Only the retro inverso form of ST100,038, (ST100,059; SEQ ID NO.: 30) was found to be biologically active |  |  |  | 
2 | 0 | PSQSSHPPLSTA ([dP][dS][dQ][dS][dS][dH][dP][dP][dL][dS][dT][dA]; listed as Homo sapiens) [ST100,059, retro inverso version of ST100,038] | biologically active | clearly inhibit tumor growth |  |  | Inhibition of VEGF-mediated survival/proliferation [3]: VEGF stimulation was inhibited with increasing doses; P (ANOVA) of tumor growth inhibition ([4]; FIG. 12): < 0.05; Inhibition of tumor growth ([5]; 100 mg/kg daily IP): does not inhibit tumor growth
3 |  | PYDGRGDSVVYGLRKKKAARGRRAARGRR (listed as Homo sapiens) [ST100,061] |  | may be less active |  |  | Inhibition of VEGF mediated survival/proliferation [6]: effective in inhibiting both VEGF and bFGF; Inhibition of bFGF mediated survival/proliferation [7]: effective in inhibiting both VEGF and bFGF
4 |  | RLGYVVSDGRGDYP (listed as Homo sapiens) [ST100,077] |  |  | Neither ST100,077 (SEQ ID NO.: 16) encoding the integrin binding domain or ST100,078 (SEQ ID NO.: 17) encoding the heparin binding domain or the simple combination of the two peptides (ST100,077 and ST100,078) blocked cell proliferation or induced cell death |  | 
5 | 875 | RRGRAARRGRAAKKK (listed as Homo sapiens) [ST100,078] |  |  | Neither ST100,077 (SEQ ID NO.: 16) encoding the integrin binding domain or ST100,078 (SEQ ID NO.: 17) encoding the heparin binding domain or the simple combination of the two peptides (ST100,077 and ST100,078) blocked cell proliferation or induced cell death | not as potent | 

Row | Sequence | [NaCl] for elution [2] [mM] | biological activity [1] | Inhibition of tumor growth [4] | Inhibition of proliferation of mouse leukemia L1210 cells [8] | Inhibition of bFGF-mediated survival [9] | also measured
6 | RRGRAARRGRAAKKKRLGYVVSDGRGDYP [ST100,064, retro-inverso form of ST100,061] | 875 |  |  | able to block cell proliferation and induce cell death | can inhibit bFGF mediated survival as effectively as ST100,061; also recorded: the most active in inhibiting bFGF stimulation | heparin binding activity (comparison in words) [2]: much more active; also recorded: bind less strongly than ST100,082; ability to induce tumor cell death (comparison in words) [10]: much more active; Survival ([11]; DBA/2 mice): statistically significant increases in survival; mice (cured mice) that survived longer than 30 days [11]: Sixty to eighty; Inhibition of tumor growth ([5]; 25 mg/kg daily IP): able to inhibit tumor growth
